Results as given in ChEMBL document CHEMBL2146447, “Synthesis and antimicrobial activity of amido linked pyrrolyl and pyrazolyl-oxazoles, thiazoles and imidazoles” (2011).
Calls of active or inactive are those of the source. The calls are words filed in the database; no cut-off is given here.

Assays:
Format in all cases: functional
[1] = test system: Penicillium chrysogenum; test: Antifungal activity against Penicillium chrysogenum at 50 ug after 48 hrs by agar well diffusion method; conditions: for zone of inhibition at 50 µg/disc: read-out: DIZ
[2] = test system: Penicillium chrysogenum; test: Antifungal activity against Penicillium chrysogenum at 100 ug after 48 hrs by agar well diffusion method; conditions: for zone of inhibition at 100 µg/disc: read-out: DIZ
[3] = test system: Aspergillus niger; test: Antifungal activity against Aspergillus niger at 100 ug after 48 hrs by agar well diffusion method; conditions: for zone of inhibition at 100 µg/disc: read-out: DIZ
[4] = test system: Aspergillus niger; test: Antifungal activity against Aspergillus niger at 50 ug after 48 hrs by agar well diffusion method; conditions: for zone of inhibition at 50 µg/disc: read-out: DIZ
[5] = test system: Penicillium chrysogenum; test: Fungicidal activity against Penicillium chrysogenum after 48 hrs by broth dilution method
[6] = test system: Aspergillus niger; test: Fungicidal activity against Aspergillus niger after 48 hrs by broth dilution method
[7] = test system: Klebsiella pneumoniae; test: Antibacterial activity against Klebsiella pneumoniae at 100 ug after 24 hrs by agar well diffusion method; conditions: for zone of inhibition at 100 µg/disc: read-out: DIZ
[8] = test system: Klebsiella pneumoniae; test: Antibacterial activity against Klebsiella pneumoniae at 50 ug after 24 hrs by agar well diffusion method; conditions: for zone of inhibition at 50 µg/disc: read-out: DIZ
[9] = test system: Bacillus subtilis; test: Antibacterial activity against Bacillus subtilis at 50 ug after 24 hrs by agar well diffusion method; conditions: for zone of inhibition at 50 µg/disc: read-out: DIZ
[10] = test system: Staphylococcus aureus; test: Antibacterial activity against Staphylococcus aureus at 100 ug after 24 hrs by agar well diffusion method; conditions: for zone of inhibition at 100 µg/disc: read-out: DIZ
[11] = test system: Pseudomonas aeruginosa; test: Antibacterial activity against Pseudomonas aeruginosa at 100 ug after 24 hrs by agar well diffusion method; conditions: for zone of inhibition at 100 µg/disc: read-out: DIZ
[12] = test system: Staphylococcus aureus; test: Antibacterial activity against Staphylococcus aureus assessed at 50 ug after 24 hrs by agar well diffusion method; conditions: for zone of inhibition at 50 µg/disc: read-out: DIZ
[13] = test system: Pseudomonas aeruginosa; test: Antibacterial activity against Pseudomonas aeruginosa at 50 ug after 24 hrs by agar well diffusion method; conditions: for zone of inhibition at 50 µg/disc: read-out: DIZ
[14] = test system: Bacillus subtilis; test: Antibacterial activity against Bacillus subtilis at 100 ug after 24 hrs by agar well diffusion method; conditions: for zone of inhibition at 100 µg/disc: read-out: DIZ
[15] = test system: Pseudomonas aeruginosa; test: Bactericidal activity against Pseudomonas aeruginosa after 24 hrs by broth dilution method
[16] = test system: Staphylococcus aureus; test: Antibacterial activity against Staphylococcus aureus at 35 degC after 24 hrs by broth dilution method
[17] = test system: Bacillus subtilis; test: Bactericidal activity against Bacillus subtilis after 24 hrs by broth dilution method
[18] = test system: Klebsiella pneumoniae; test: Bactericidal activity against Klebsiella pneumoniae after 24 hrs by broth dilution method

Structure (SMILES)	zone of inhibition at 50 µg/disc [1] [mm]	zone of inhibition at 100 µg/disc [2] [mm]	zone of inhibition at 100 µg/disc [3] [mm]	zone of inhibition at 50 µg/disc [4] [mm]	zone of inhibition at 100 µg/disc [7] [mm]	zone of inhibition at 50 µg/disc [8] [mm]	zone of inhibition at 50 µg/disc [9] [mm]	zone of inhibition at 100 µg/disc [10] [mm]	zone of inhibition at 100 µg/disc [11] [mm]	zone of inhibition at 50 µg/disc [12] [mm]	zone of inhibition at 50 µg/disc [13] [mm]	zone of inhibition at 100 µg/disc [14] [mm]	further results
CC(=O)N1CCN(c2ccc(OCC3COC(Cn4ccnc4)(c4ccc(Cl)cc4Cl)O3)cc2)CC1 (stereo not drawn) [KETOCONAZOLE]	36	38	36	33	–	–	–	–	–	–	–	–	MIC [5]: 12.5 µg; MIC [6]: 6.25 µg
Cc1ccc(-c2csc(NC(=O)c3n[nH]cc3-c3ccccc3)n2)cc1	10	13	11	8	15	13	10	11	11	9	8	13	–
O=C(N[C@H](CO)[C@H](O)c1ccc([N+](=O)[O-])cc1)C(Cl)Cl [CHLORAMPHENICOL]	–	–	–	–	42	40	34	35	30	33	27	38	MIC [15]: 6.25 µg; MIC [16]: 6.25 µg; MIC [17]: 6.25 µg; MIC [18]: 12.5 µg
Cc1ccc(-c2coc(NC(=O)c3c[nH]cc3-c3ccccc3)n2)cc1	–	–	–	–	–	–	–	–	–	–	–	–	diameter of the inhibition zone (DIZ) [7]: inactive; diameter of the inhibition zone (DIZ) [1]: inactive; diameter of the inhibition zone (DIZ) [8]: inactive; diameter of the inhibition zone (DIZ) [2]: inactive; diameter of the inhibition zone (DIZ) [3]: inactive; diameter of the inhibition zone (DIZ) [9]: inactive; diameter of the inhibition zone (DIZ) [10]: inactive; diameter of the inhibition zone (DIZ) [4]: inactive; diameter of the inhibition zone (DIZ) [11]: inactive; diameter of the inhibition zone (DIZ) [12]: inactive; diameter of the inhibition zone (DIZ) [13]: inactive; diameter of the inhibition zone (DIZ) [14]: inactive
O=C(Nc1nc(-c2ccc(Cl)cc2)c[nH]1)C1=NNCC1c1ccccc1 (stereo not drawn)	29	32	30	28	30	28	24	27	24	25	21	27	–
O=C(/C=C/c1ccccc1)Nc1nc(-c2ccc(Cl)cc2)co1	27	30	28	25	27	24	20	25	22	22	21	24	–
O=C(Nc1nc(-c2ccccc2)cs1)c1n[nH]cc1-c1ccccc1	11	14	12	9	16	14	12	12	11	9	9	14	–
O=C(Nc1nc(-c2ccccc2)cs1)C1=NNCC1c1ccccc1 (stereo not drawn)	–	–	–	–	–	–	14	15	–	13	–	16	diameter of the inhibition zone (DIZ) [7]: inactive; diameter of the inhibition zone (DIZ) [1]: inactive; diameter of the inhibition zone (DIZ) [8]: inactive; diameter of the inhibition zone (DIZ) [2]: inactive; diameter of the inhibition zone (DIZ) [3]: inactive; diameter of the inhibition zone (DIZ) [4]: inactive; diameter of the inhibition zone (DIZ) [11]: inactive; diameter of the inhibition zone (DIZ) [13]: inactive
O=C(Nc1nc(-c2ccccc2)c[nH]1)c1n[nH]cc1-c1ccccc1	9	12	10	8	14	12	10	10	11	8	9	13	–
Cc1ccc(-c2csc(NC(=O)c3c[nH]cc3-c3ccccc3)n2)cc1	18	21	19	18	23	21	19	18	15	16	13	21	–
O=C(Nc1nc(-c2ccccc2)c[nH]1)C1=NNCC1c1ccccc1 (stereo not drawn)	14	17	15	13	19	17	15	14	14	12	12	17	–
O=C(Nc1nc(-c2ccc(Cl)cc2)co1)c1n[nH]cc1-c1ccccc1	26	29	27	24	24	23	21	23	21	20	19	22	–
O=C(Nc1nc(-c2ccccc2)cs1)c1c[nH]cc1-c1ccccc1	19	22	20	18	24	22	20	19	16	17	15	22	–
O=C(Nc1nc(-c2ccc(Cl)cc2)cs1)C1=NNCC1c1ccccc1 (stereo not drawn)	28	31	29	28	28	25	25	27	23	24	22	26	–
Cc1ccc(-c2csc(NC(=O)/C=C/c3ccccc3)n2)cc1	22	25	23	19	27	25	23	22	17	20	15	25	–
Cc1ccc(-c2c[nH]c(NC(=O)c3c[nH]cc3-c3ccccc3)n2)cc1	16	19	17	14	21	19	17	16	14	14	13	19	–
O=C(/C=C/c1ccccc1)Nc1nc(-c2ccc(Cl)cc2)cs1	32	35	33	31	35	33	27	32	27	29	25	29	–
